Reference: ChEMBL document CHEMBL5579891, “A Glycyrrhizin Derivative with a More Potent Inhibitory Activity against High-Mobility Group Box 1 Efficiently Discovered by Chemical Synthesis Inspired by the Bioconversion Products of an Endophytic Fungus Isolated from Licorice” (J Med Chem, 2024)
Activity calls are given as the source filed them. No cut-off for these calls is given here.

Tests used:
Peritoneal macrophage [1] = experiment: Suppression of HMGB1-induced IL-1beta mRNA expression in male ddY mouse Peritoneal macrophage cells at 10 uM incubated for 2 hrs by qRT-PCR analysis; type: functional, cell-based
RAW264.7 [2] = experiment: Cytotoxicity against mouse RAW264.7 cells at 30 to 100 uM measured after 2 hrs by LDH assay; type: toxicity, cell-based; conditions: raw264.7, 2 h, dose 30-100 µM
RAW264.7 [3] = experiment: Cytotoxicity against mouse RAW264.7 cells at 100 uM measured after 2 hrs by LDH assay; type: toxicity, cell-based; conditions: raw264.7, 2 h
Peritoneal macrophage [4] = experiment: Suppression of HMGB1-induced IL-1beta mRNA expression in male ddY mouse Peritoneal macrophage cells at 10 nM incubated for 2 hrs in presence of RU486 by qRT-PCR analysis; type: functional, cell-based
[5] = Solubility of compound at >10 uM; type: physicochemical
Peritoneal macrophage [6] = experiment: Suppression of HMGB1-induced IL-1beta mRNA expression in male ddY mouse Peritoneal macrophage cells at 10 uM incubated for 2 hrs in presence of RU486 by qRT-PCR analysis; type: functional, cell-based
Mus musculus [7] = experiment: Effect on brain water content in cerebellum in male ddY mouse model of collagenase induced intracerebral hemorrhage at 100 mg/kg, po pretreated with collagenase for 20 mins followed by compound administration via oral gavage and measured at 24 hrs; type: functional, organism-based
Mus musculus [8] = experiment: Effect on brain water content in contralateral hemisphere in male ddY mouse model of collagenase induced intracerebral hemorrhage at 100 mg/kg, po pretreated with collagenase for 20 mins followed by compound administration via oral gavage and measured at 24 hrs; type: functional, organism-based
Mus musculus [9] = experiment: (§1) In vivo inhibition of HMGB1 in male ddY mouse model of collagenase induced intracerebral hemorrhage assessed as reduction in AQP4 protein level at 100 mg/kg, po pretreated with collagenase for 20 mins followed by compound administration via oral gavage and measured at 24 hrs by Western blot analysis; type: functional, organism-based
[10] = Drug uptake in brain of male ddY mouse model of collagenase induced intracerebral hemorrhage assessed as appearance of unchanged form of drug by measuring retention time at 100 mg/kg, po pretreated with collagenase for 20 mins followed by compound administration via oral gavage and measured at 24 hrs by LC-MS analysis; type: ADME, organism-based; conditions: in vivo
Mus musculus [11] = experiment: Suppression of IL-1beta mRNA expression in po dosed male ddY mouse model of collagenase induced intracerebral hemorrhage pretreated with collagenase for 20 mins followed by compound administration via oral gavage and measured at 24 hrs by qRT-PCR analysis; type: functional, organism-based; conditions: dose 50-100 mg/kg
Mus musculus [12] = experiment: Effect on hematoma size in male ddY mouse model of collagenase induced intracerebral hemorrhage at 100 mg/kg, po pretreated with collagenase for 20 mins followed by compound administration via oral gavage and measured at 24 hrs; type: functional, organism-based
Mus musculus [13] = experiment: as §1, with “brain water content in ipsilateral hemisphere” for “AQP4 protein level”, “hrs” for “hrs by Western blot analysis”; type: functional, organism-based
Mus musculus [14] = experiment: Neuroprotective activity in male ddY mouse model of collagenase induced intracerebral hemorrhage assessed as rescue of ICH-induced neuronal loss by measuring increase in NeuN-positive neurons in periphery of […] at 100 mg/kg, po pretreated with collagenase for 20 mins followed by compound administration via oral gavage and measured at 24 hrs by immunohistochemical staining based analysis; type: functional, organism-based

In the case of `CC1(C)[C@@H](O[C@H]2O[C@H](C(=O)O)[C@@H](O)[C@H](O)[C@H]2O[C@@H]2O[C@H](C(=O)O)[C@@H](O)[C@H](O)[C@H]2O)CC[C@]2(C)[C@H]3C(=O)C=C4[C@@H]5C[C@@](C)(C(=O)O)CC[C@]5(C)CC[C@@]4(C)[C@]3(C)CC[C@@H]12`, the Activity (Peritoneal macrophage [1]) is reported as “Active”.
With `CC1(C)[C@@H](O)CC[C@]2(C)[C@H]3C(=O)C=C4[C@@H]5C[C@@](C)(C(=O)O)CC[C@]5(C)CC[C@@]4(C)[C@]3(C)CC[C@@H]12` [ENOXOLONE] the Activity (RAW264.7 [2]) was “Toxic”.
In the case of `CC1(C)C(=O)CC[C@]2(C)[C@H]3C(=O)C=C4[C@@H]5C[C@@](C)(C(=O)O)CC[C@]5(C)C[C@H](O)[C@@]4(C)[C@]3(C)CC[C@@H]12`, the Activity (RAW264.7 [3]) is reported as “Toxic” and the Activity (Peritoneal macrophage [1]) is reported as “inactive”.
For `CC1(C)C(=O)CC[C@]2(C)[C@H]3C(=O)C=C4[C@@H]5C[C@@](C)(C(=O)O)CC[C@]5(C)CC[C@@]4(C)[C@]3(C)CC[C@@H]12`, the Activity (RAW264.7 [3]) was “Toxic”.
For `C[C@]12CCC(=O)C=C1CC[C@@H]1[C@@H]2[C@@H](O)C[C@@]2(C)[C@H]1CC[C@]2(O)C(=O)CO`, the Activity (Peritoneal macrophage [4]) was “inactive”.
With `CC1(C)[C@@H](O)CC[C@]2(C)[C@H]3C(=O)C=C4[C@@H]5C[C@@](C)(C(=O)O)CC[C@]5(C)C[C@H](O)[C@@]4(C)[C@]3(C)CC[C@@H]12` the Activity (Peritoneal macrophage [1]) was “inactive”.
With `COC(=O)[C@@]1(C)CC[C@]2(C)CC[C@]3(C)C(=CC(=O)[C@@H]4[C@@]5(C)CCC(=O)C(C)(C)[C@@H]5CC[C@]43C)[C@@H]2C1` the solubility [5] was “Insoluble”, the Activity (Peritoneal macrophage [6]) was “Active” and the Activity (Peritoneal macrophage [1]) was “Active”. The Activity (Mus musculus [7]) was “inactive”, the Activity (Mus musculus [8]) was “inactive” and the inhibition (Mus musculus [9]) was “Active”. For the same molecule, the Retention_time [10] was 11.3 min, the Activity (Mus musculus [11]) was “Dose-Dependent Effect” and the Activity (Mus musculus [12]) was “inactive”. The inhibition (Mus musculus [13]) was “Active” and the Activity (Mus musculus [14]) was “Active”.
